According to patent publication EP0403591B1, “CRF ANALOGS” (THE SALK INSTITUTE FOR BIOLOGICAL STUDIES, priority 1988, dated 1994):
pEC50: −log10 of the molar value. Entries after “also recorded” stand apart in the source; their conditions may differ. Non-standard residues stand in square brackets, D forms with d. Residues, ends and D or L forms follow the SMILES beside them. No end group written: not given here. *: point of attachment. Nle = CCCC[C@H](N)C(=O)O; Bz = O=C(c1ccccc1)*

Experiments:
[1] = system: cultured rat pituitary cells; experiment: Secretion of ACTH and β-endorphin by cultured rat pituitary cells (procedure of Example III); assay type: cell-based; conditions: for secretion of ACTH and β-END-LI: testing by the general procedure of Example III (in vitro and in vivo); for pEC50: stimulation of secretion of ACTH and β-endorphin by cultured rat pituitary cells, read-out: Half-maximal responses (concentration)
Protocol: The synthetic peptide from Example I and synthetic oCRF are examined for their effects on the secretion of ACTH and β-endorphin in vitro and also in vivo.
The potency of synthetic oCRF to stimulate the secretion of ACTH and β-endorphin by cultured rat pituitary cells is measured using the procedure as generally set forth in Endocrinology, 91, 562 (1972). Half-maximal responses are observed at concentrations of the peptide very substantially less than the synthetic oCRF concentrations of about 250 picomolar which are needed to achieve this response. In vivo testing is carried out using the general procedure set forth in C. Rivier et al., Science, 218, 377 (1982), and biological potency is ascertained.

[2] = Lowering of blood pressure (in vivo testing, general procedure of Example III); conditions: testing by the general procedure of Example III
[3] = background statement; cited from earlier work
[4] = background statement; in mammals; cited from earlier work
ACTH and β-endorphin = conditions: background statement; in vitro and in vivo; cited from earlier work
[5] = administered into the ventricles, rats; cited from earlier work

Row | Compound | secretion of ACTH and β-END-LI [1] | lowering of blood pressure [2] | also measured
1 | CCCC[C@H](NC(=O)[C@H](Cc1c[nH]cn1)NC(=O)[C@H](CC(C)C)NC(=O)[C@H](CCCC)NC(=O)[C@H](CCC(=O)O)NC(=O)[C@H](CCCNC(=N)N)NC(=O)[C@H](CC(C)C)NC(=O)[C@H](CC(C)C)NC(=O)[C@H](Cc1c[nH]cn1)NC(=O)[C@H](Cc1ccccc1)NC(=O)[C@@H](NC(=O)[C@H](CC(C)C)NC(=O)[C@H](CC(=O)O)NC(=O)[C@H](CC(C)C)NC(=O)[C@H](CO)NC(=O)[C@@H](NC(=O)[C@@H]1CCCN1C(=O)[C@@H]1CCCN1)[C@@H](C)CC)[C@@H](C)O)C(=O)N[C@@H](C)C(=O)N[C@@H](CCCNC(=N)N)C(=O)N[C@@H](C)C(=O)N[C@@H](CCC(=O)O)C(=O)N[C@@H](CCC(N)=O)C(=O)N[C@@H](CCC(=O)O)C(=O)N[C@@H](C)C(=O)N[C@@H](CCC(=O)O)C(=O)N[C@@H](CCC(N)=O)C(=O)N[C@@H](C)C(=O)N[C@@H](CC(C)C)C(=O)N[C@@H](CC(C)C)C(=O)N[C@@H](CC(N)=O)C(=O)N[C@@H](CCCNC(=N)N)C(=O)N[C@@H](CC(N)=O)C(=O)N[C@@H](CC(C)C)C(=O)N[C@@H](CC(C)C)C(=O)N[C@@H](CCC(=O)O)C(=O)N[C@@H](CCC(=O)O)C(=O)N[C@@H](C)C(N)=O [XVII] (H-PPISLDLTFHLLRE[Nle]LH[Nle]ARAEQEAEQALLNRNLLEEA-NH2) | stimulates the secretion of ACTH and β-END-LI | very significant lowering of blood pressure | 
2 | CC[C@H](C)[C@H](NC(=O)[C@H](CC(=O)O)NC(=O)[C@H](CC(C)C)NC(=O)[C@H](CC(C)C)NC(=O)[C@H](CCCCN)NC(=O)[C@H](CCCNC(=N)N)NC(=O)[C@H](CC(N)=O)NC(=O)[C@H](CO)NC(=O)[C@H](Cc1c[nH]cn1)NC(=O)[C@H](C)NC(=O)[C@H](CCC(N)=O)NC(=O)[C@H](CCC(N)=O)NC(=O)[C@H](C)NC(=O)[C@H](CC(C)C)NC(=O)[C@H](CCC(N)=O)NC(=O)[C@H](CC(=O)O)NC(=O)[C@H](C)NC(=O)[C@H](CCCCN)NC(=O)[C@@H](NC(=O)[C@H](CCSC)NC(=O)[C@H](CCC(=O)O)NC(=O)[C@H](CC(C)C)NC(=O)[C@@H](NC(=O)[C@H](CCC(=O)O)NC(=O)[C@H](CCCNC(=N)N)NC(=O)[C@H](CC(C)C)NC(=O)[C@H](CC(C)C)NC(=O)[C@H](Cc1c[nH]cn1)NC(=O)[C@H](Cc1ccccc1)NC(=O)[C@@H](NC(=O)[C@H](CC(C)C)NC(=O)[C@H](CC(=O)O)NC(=O)[C@H](CC(C)C)NC(=O)[C@H](CO)NC(=O)[C@@H](NC(=O)[C@@H]1CCCN1C(=O)[C@@H]1CCCN1C(=O)[C@H](CCC(=O)O)NC(=O)[C@H](CCC(N)=O)NC(=O)[C@@H](N)CO)[C@@H](C)CC)[C@@H](C)O)C(C)C)[C@@H](C)O)C(=O)N[C@@H](C)C(N)=O [oCRF, ovine CRF] |  |  | pEC50 [1]: ~9.60; gastric acid production [3]: inhibits gastric acid production; lowering blood pressure [4]: biological activity in lowering blood pressure; also recorded: substantially lower blood pressure for an extended time period; secretion of ACTH and β-endorphin (ACTH and β-endorphin): stimulating the secretion of ACTH and β-endorphin; also recorded: stimulate ACTH and β-endorphin activities in vitro and in vivo
3 | Ac-PPISLDLTFHLLREVLHMARAEQLAEQAHSNRNLMEEI-NH2 [VII, [Acetyl-Pro⁴, His²⁰, Glu^29,40, Asn³⁶]-rCRF(4-41)] | stimulates the secretion of ACTH and β-END-LI | very significant lowering of blood pressure to a greater extent than rCRF | 
4 | Bz-GEEPPISLDLT[Nle]HLLREVLHMARAEQLAQQAHSNRRLMEII-NH2 [VI, [Benzoyl-Gly¹, Nle¹², His²⁰, Arg³⁶]-rCRF] | stimulates the secretion of ACTH and β-END-LI | very significant lowering of blood pressure | 
5 | CRF: corticotropin releasing factor, species not specified (SEEPPISLDLTFHLLREVLEMARAEQLAQQAHSNRKLMEII; ends and bridges not checked; UniProt P06850 154-194, looked up) |  |  | activity and learning performance [5]: increases activity and improves learning performance
6 | Rat CRF (SEEPPISLDLTFHLLREVLEMARAEQLAQQAHSNRKLMEII; ends and bridges not checked; UniProt P01143 145-185, looked up) [rCRF, hentetracontapeptide; formula of human CRF is the same as that of rCRF] |  |  | lowering blood pressure [4]: substantially lower blood pressure for an extended time period; secretion of ACTH and β-endorphin (ACTH and β-endorphin): stimulate ACTH and β-endorphin activities in vitro and in vivo
7 | SEEPPISLDLTFHLLREVLHMARAEGLAQQAHSNRKLMEII-NH2 [IV, [His²⁰, Gly²⁶)-rCRF] | stimulates the secretion of ACTH and β-END-LI | very significant lowering of blood pressure | 
8 | SEEPPISLDLTFHLLREVLHMARAEQLAQQAHSNRKLMEII-NH2 [Example I, [His²⁰]-rCRF] |  |  | pEC50 [1]: > 9.60
9 | SEEPPISLDLTFHLLREVLHRARAEQLAQQALINRKLMEII-NH2 [IX, [His²⁰, Arg²¹, Leu³², Ile³³]-rCRF] | stimulates the secretion of ACTH and β-END-LI | very significant lowering of blood pressure to a greater extent than rCRF | 
10 | SEEPPISLDLTFHLLREVLH[Nle]ARAEQLAQQALINRKLMEEI-NH2 [VIII, [His²⁰, Nle²¹, Leu³², Ile³³, Glu⁴⁰]-rCRF] | stimulates the secretion of ACTH and β-END-LI | very significant lowering of blood pressure to a greater extent than rCRF | 
11 | SEEPPISLELTFHLLREVLH[Nle]ARAEQLAEQAHINRKLMEII-NH2 [V, [Glu⁹, His²⁰, Nle²¹, Glu²⁹, Ile³³]-rCRF] | stimulates the secretion of ACTH and β-END-LI | very significant lowering of blood pressure to a greater extent than rCRF | 
12 | SQEPPISLDLTFHLLREMLHRAKAEQEAEQAAINRLLLEEA-NH2 [XIX] | stimulates the secretion of ACTH and β-END-LI | very significant lowering of blood pressure | 
13 | SQEPPISLDLTFHLLREVLHMTKADQLAQQAHSNRNLLDIA-NH2 [XIV, [His²⁰, Asn³⁶]-oCRF] | stimulates the secretion of ACTH and β-END-LI | very significant lowering of blood pressure | 
14 | SQEPPISLDLTFHLLREVLH[Nle]TKADQLAQQAHSNRKLLDIA-NH2 [XV, [His²⁰, Nle²¹]-oCRF] | stimulates the secretion of ACTH and β-END-LI | very significant lowering of blood pressure | 
15 | SQEPPISLDLTFHLLRE[Nle]LH[Nle]AKAEQEAEQAALNRLLLEEA-NH2 [XI] | stimulates the secretion of ACTH and β-END-LI | very significant lowering of blood pressure | 
16 | SQEPPISLDLTFHMLREMLHMAKMEQEAEQAALNRLLLEEA-NH2 [XVIII] | stimulates the secretion of ACTH and β-END-LI | very significant lowering of blood pressure | 
17 | SQEPPISLDLTFHMLREMLHRAKMEGEAEQALINRNLLEEA-NH2 [XIII] | stimulates the secretion of ACTH and β-END-LI | very significant lowering of blood pressure | 
18 | SQEPPISLELTFHLLRE[Nle]LHRAKAEQEAEQAALNRLLLEEA-NH2 [X] | stimulates the secretion of ACTH and β-END-LI | very significant lowering of blood pressure | 
19 | SQ[dY]PPISLDLTFHLLRE[Nle]LH[Nle]AKAGQEAEQAALNRLLLEEA-NH2 [XII] | stimulates the secretion of ACTH and β-END-LI | very significant lowering of blood pressure | 
20 | Sauvagine |  |  | lowering blood pressure [4]: biological activity in lowering blood pressure; secretion of ACTH and β-endorphin (ACTH and β-endorphin): stimulating the secretion of ACTH and β-endorphin
21 | [D-Pro⁴, His²⁰]-oCRF(4-41) [XVI] | stimulates the secretion of ACTH and β-END-LI | very significant lowering of blood pressure | 
